Patent US8729128B2, “Lipoxin A4 protection for cornea endothelial cells” (Board of Supervisors of Louisiana State University And …, priority 2007, dated 2014)

How the values were obtained:
Format in all cases: cell-based
[1] = test system: Rabbit corneal endothelial cells (RCEC); assay: Proliferation of rabbit corneal endothelial cells (Ki-67 antibody staining); settings: rabbit CEC, 10 nM to 200 nM, DMEM/F12 0.5% FBS, 24 hours
From the text: (§1) Rabbit corneal endothelial cells (RCEC) and human corneal endothelial cells along with the Decemet's membrane were isolated from normal eyes (National Disease Research Interchange (NDRI), Philadelphia, Pa.), and the cells were suspended in Dulbecco's Modified Eagle Medium/Nutrient Mixture F-12 (DMEM/F12; GIBCO®, Grand Island, N.Y.) supplemented with 15% fetal bovine serum (FBS; GIBCO®), and seeded in 12-well plates. Cell phenotype was identified by using the endothelial cell marker anti-ZO-1 antibody (anti-zonula occludins-1 antibody) (Zymed Laboratories, Inc., San Francisco, Calif.). The localization of the lipoxin A4 (LXA4) receptor was detected with the polyclonal antibody FPRL1 (formyl peptide receptor-like 1; sc-13193, Santa Cruz Biotechnology, Inc., Santa Cruz, Calif.) (FIG. 1). […] The same was found with human endothelial cells. (Data not shown) This is the first time such receptor has been reported in cornea endothelial cells.
Proliferation of cornea endothelial cells was evaluated with anti-Ki-67 antibody (Zymed Laboratories, Inc., San Francisco, Calif.). Rabbit CEC cells were grown at 60-70% confluence, starved for 24 hours, and then treated with 15-epimer-lipoxin A4 (Calbiochem, Madison, Wis.) at different concentrations from 10 nM to 200 nM in DMEM/F12 containing 0.5% FBS for 24 hours. […] In addition, a similar experiment was conducted using lipoxin A4.

[2] = test system: Rabbit corneal endothelial cells (RCEC); assay: In vitro wound closure in confluent rabbit corneal endothelial cells; settings: 10 nM and 100 nM, 24 hours
From the text: as §1
To measure in vitro wound closure, 12-day cultures of completely confluent RCEC in 12-well plates were wounded by linear scraping with a sterile plastic tip in the center of the well. Cells were incubated for 24 hours in DMEM/F12 with or without 15-epimer lipoxin A4 at 10 nM and 100 nM concentrations. The width of wound was calculated using Metavue Image software. […]

[3] = test system: human corneal endothelial cells; assay: Proliferation of cultured human corneal endothelial cells (Ki-67 immunofluorescence); settings: human CEC, second passage, 100 nM, 24 hours
Method: (§2) Human eyeballs were obtained from NDRI (National Disease Research Interchange, Philadelphia, Pa.) and shipped to the laboratory on ice. The corneas were excised along the sclerocorneal rim, and the endothelia together with the Decemet's membrane were removed with tooth-free fine forceps under a dissection microscope. Pieces of the endothelia were seeded in DMEM/F12 (GIBCO®, Grand Island, N.Y.) supplemented with 15% FBS in 12-well plates. Cell phenotypes were identified and confirmed by using the endothelial cell marker anti-ZO-1 antibody (Zymed Laboratories, Inc., San Francisco, Calif.). […] This method of cell culture was used to establish cell cultures from several human eyeballs.
A secondary passage of human corneal endothelial cells derived from a donor was obtained as described above in Example 4. The cells were grown to 70% confluence in 24-well plate, and then starved for 24 hours. The starved cells were then incubated in DMEM/F12 containing 0.5% FBS with or without 15-epimer LxA4 (100 nM; from Calbiochem, Madison, Wis.) for 24 hours. […] Based on the rabbit studies above, it is believed that lipoxin A4 and its other analogs would show similar results as the 15-epimer lipoxin A4 used in these experiments.

[4] = test system: human corneal endothelial cells; assay: Cell migration in a wound of human corneal endothelial cells; settings: human CEC, 100 nM, at 48 hours, p<0.05
Method: as §2
A secondary passage of human corneal endothelial cells derived from a donor was obtained as described above in Example 4. The cells were grown to 70% confluence in 24-well plate, and then starved for 24 hours. […] Wound healing was determined by phase contrast images collected by a camera attached to the microscope, and the result shown in FIG. 6B. The width of wound was calculated using Metavue Image software. The degree of cell migration was quantified by measuring the width of the wounded area at 24 and 48 hours, and the data shown in FIG. 6A. […]

Compound | number of cells with Ki-67 staining (proliferation) [1] | wound healing (width of wound) [2] | cell proliferation (percentage of Ki-67-positive cells versus total cells) [3] | cell migration (width of the wounded area) [4]
CCCCC[C@H](O)/C=C/C=C\C=C\C=C\[C@@H](O)[C@@H](O)CCCC(=O)O [lipoxin A4] | the same, both qualitatively and quantitatively | the same, both qualitatively and quantitatively |  | 
CCCCC[C@@H](O)/C=C/C=C\C=C\C=C\[C@@H](O)[C@@H](O)CCCC(=O)O [15-epimer lipoxin A4] | increases with the concentration | promoted wound healing | significant increase | significant increase in cell migration
